Assay results reported in patent US20090226901A1, “Method of evaluating or selecting agents for preventing or improving pigmented spots” (Kao Corporation, priority 2008, published 2009).

Columns and labels:
endothelin-1 gene [1] = assay: endothelin-1 gene expression in organ-cultured skin tissue of pigmentatio petaloides actinica, RT-PCR; format: cell-based, human; conditions: 10 μM PFT, 72 hours organ culture, epidermis, relative to control spot sample, FIG. 6
Excerpt: (§1) Through a contract laboratory of Stephens & Associates (Carrollton, Tex.), subjects having spots were recruited. A dermatologist, contractor of the laboratory, collected samples of skin tissue with pigmentatio petaloides actinica from the shoulder (at two sites for each subject) in two subjects at with a biopsy trepan (diameter: 4 mm). Thereafter, the thus-collected skin biopsy samples were immersed in Dulbecco's modified Eagle's medium (DMEM), and transported to the Cincinnati branch of Biological Science Americas Laboratories while being maintained at about 4 to 10° C. […]
(§2) Thereafter, total RNA was extracted by use of RNeasy micro kit (Qiagen), and cDNA was synthesized through a customary method by means of ThermoScript RT-PCR Systems (Invitrogen, Carlsbad, Calif.). Probes specific to tyrosinase mRNA, SCF (KITLG) mRNA, and endothelin-1 mRNA were obtained from TaqMan® Gene Expression Assays (Applied Biosystems) (Assay IDs: Hs00165976_m1, Hs00241497_m1, and Hs00174961_ml), and real-time quantitative RT-PCR was carried out by means of ABI PRISM 7300 sequence detection system (Applied Biosystems). […] The expression level of each gene in the PFT-treated spot sample was calculated relative to that of the gene in a control spot sample (taken as 1).

endothelin-1 gene [2] = assay: endothelin-1 gene expression in cultured human epidermal keratinocytes, quantitative PCR; format: cell-based; conditions: cultured epidermal cells
Description: (§3) Human epidermal cells derived from neonatal foreskin were purchased from Kurabo Industries Ltd., and were precultured in a serum-free basal growth medium (EpiLife, product of Kurabo Industries Ltd.) in an atmosphere of 5% (v/v) CO2 at 37° C. The thus-precultured epidermal cells were inoculated into a 6-well culture plate (product of Falcon) (1.0×10^5 cells/well). Twenty-four hours thereafter, the cells were cultured in a growth medium without including BPE (bovine pituitary gland extract) and hEGF (human epidermal growth factor), and 24 hours thereafter, 5-fluorouracil (5-FU, product of Calbiochem), which is a conventionally known p53 activator, was added at a concentration of 1 or 10 μg/mL. After 48-hour treatment, total RNA was extracted by use of TRIzol® Reagent (product of Invitrogen Corporation). Specifically, each well of the culture plate was washed with PBS, and TRIzol® Reagent (1 mL) was added to the well. […]
(§4) The thus-extracted total RNA was subjected to reverse transcription to synthesize cDNA, and the thus-synthesized cDNA was employed for gene expression analysis through quantitative PCR using TaqMan® probe. In the present Example, specifically, expression levels of SCF (KITLG) gene (Assay ID: Hs00241497_m1) and endothelin-1 gene (Assay ID: Hs00174961_m1) were measured. […]

SCF (KITLG) gene [3] = assay: SCF (KITLG) gene expression in cultured human epidermal keratinocytes, quantitative PCR; format: cell-based; conditions: cultured epidermal cells
Description: as §3, §4

[4] = system: three-dimensional cultured skin model (MEL-300A); assay: melanin content of three-dimensional cultured skin model (MEL-300A); format: cell-based, human; conditions: culturing for 14 days, absorbance at 405 nm, relative to control (100%), FIG. 5
Description: A three-dimensional cultured skin model (MEL-300A) was purchased from Kurabo Industries Ltd. Immediately after the product had been obtained, a tissue cup was transferred into a 6-well culture plate (product of Falcon), and cultured overnight in a long-term maintenance medium (EPI-100-NMM-113, product of Kurabo Industries Ltd.) (1 mL), in an atmosphere of […] at 37° C. Subsequently, pifithrin-α (PFT), which is a conventionally known p53 inhibitor, was added, followed by culturing for 14 days. Culturing was carried out by allowing the tissue cup to stand still on a sterilized stainless steel washer (product of Kurabo Industries Ltd.) and by use of a long-term maintenance medium (5 mL). Medium was exchanged every three days. After culturing, skin tissue was removed from the tissue cup with tweezers, and then washed thrice with PBS, once with 5% (v/v) trichloroacetic acid, and once with a mixture of diethyl ether and ethanol (1:3 by volume). Thereafter, the thus-washed skin tissue was incubated at 50° C. for two hours, to thereby dry the tissue. Subsequently, the tissue was dissolved in 2N aqueous sodium hydroxide solution (2N) (200 μL), followed by centrifugation at 15,000 rpm for 15 minutes. Thereafter, the culture supernatant was recovered, and absorbance was measured at 405 nm, to thereby calculate the melanin content in the tissue.

SCF (KITLG) gene [5] = assay: SCF (KITLG) gene expression in organ-cultured skin tissue of pigmentatio petaloides actinica, RT-PCR; format: cell-based, human; conditions: 10 μM PFT, 72 hours organ culture, epidermis, relative to control spot sample, FIG. 6
Excerpt: as §1, §2

tyrosinase gene = tyrosinase gene expression in organ-cultured skin tissue of pigmentatio petaloides actinica, RT-PCR; format: cell-based, human; conditions: 10 μM PFT, 72 hours organ culture, epidermis, relative to control spot sample, FIG. 6
Excerpt: as §1, §2

HCT116 cells = conditions: HCT116 human colon cancer cell line; Cell, 124, 207-219, 2006; cited from earlier work
[6] = PFT 1 or 10 μM, 24-hours culturing, FIG. 4
[7] = 5-FU 1 or 10 μg/mL, 48-hour treatment, FIG. 3

In the case of `Cc1ccc(C(=O)Cn2c3c(sc2=N)CCCC3)cc1` [pifithrin-α], the “expression of endothelin-1 gene” value (endothelin-1 gene [1]) is reported as “tended to be significantly decreased”, the “expression of endothelin-1 gene” value (endothelin-1 gene [2]; [6]) is reported as “significantly decreased” and the “expression of SCF (KITLG) gene” value (SCF (KITLG) gene [3]; [6]) is reported as “significantly decreased”. The melanin contents [4] was “decreased the melanin contents of the three-dimensional cultured skin model in a dose-dependent manner”, the “expression level of SCF (KITLG) gene” value (SCF (KITLG) gene [5]) was “significantly decreased” and the “expression level of tyrosinase gene” value (tyrosinase gene) was “significantly decreased”.
In the case of `O=c1[nH]cc(F)c(=O)[nH]1` [5-fluorouracil], the “expression of endothelin-1 gene” value (endothelin-1 gene [2]; [7]) is given as “significantly induced”, the “expression of SCF (KITLG) gene” value (SCF (KITLG) gene [3]; [7]) is given as “significantly induced” and the “expression level of SCF (KITLG) gene” value (HCT116 cells) is given as “induced”.
